ChEMBL document CHEMBL3638749, “Bicyclic thiazole compounds” (2015)

molecular target: TRAF2 and NCK-interacting protein kinase (Homo sapiens, UniProt Q9UKE5); experiment: Kinase Assay: The kinase assays were conducted in a 20 μl volume using 384-well plates (Greiner). The reaction mixture consists of compound or vehicle (1% DMSO), 0.08 ng/μl TNIK_N, 1 μM FITC-labeled substrate peptides, including ε-aminocaproic acid and 7 amino acids (described as SEQ ID NO. 3 in "Kinase assay of TEST EXAMPLE 1" of WO 2010/064111(P.31)), 20 mM Hepes, pH 7.5, 0.01% Triton X-100, 5 mM MgCl2, 25 μM ATP and 2 mM DTT. As blank, TNIK_N was excluded from the reaction mixture of vehicle (1% DMSO). The kinase reaction was carried out 1 h at room temperature and terminated by addition of 60 μl of the termination buffer (127 mM Hepes, pH 7.5, 26.7 mM EDTA, 0.01% Triton X-100, 1% DMSO and 0.13% Coating Reagent 3 (Caliper Life Sciences)). The amount of unphosphorylated and phosphorylated FITC-labeled substrate peptides was detected by Mobility Shift Micro Fluidic Technology (Caliper LC3000 System, Caliper Life Sciences).
Sequence (Q9UKE5 whole entry): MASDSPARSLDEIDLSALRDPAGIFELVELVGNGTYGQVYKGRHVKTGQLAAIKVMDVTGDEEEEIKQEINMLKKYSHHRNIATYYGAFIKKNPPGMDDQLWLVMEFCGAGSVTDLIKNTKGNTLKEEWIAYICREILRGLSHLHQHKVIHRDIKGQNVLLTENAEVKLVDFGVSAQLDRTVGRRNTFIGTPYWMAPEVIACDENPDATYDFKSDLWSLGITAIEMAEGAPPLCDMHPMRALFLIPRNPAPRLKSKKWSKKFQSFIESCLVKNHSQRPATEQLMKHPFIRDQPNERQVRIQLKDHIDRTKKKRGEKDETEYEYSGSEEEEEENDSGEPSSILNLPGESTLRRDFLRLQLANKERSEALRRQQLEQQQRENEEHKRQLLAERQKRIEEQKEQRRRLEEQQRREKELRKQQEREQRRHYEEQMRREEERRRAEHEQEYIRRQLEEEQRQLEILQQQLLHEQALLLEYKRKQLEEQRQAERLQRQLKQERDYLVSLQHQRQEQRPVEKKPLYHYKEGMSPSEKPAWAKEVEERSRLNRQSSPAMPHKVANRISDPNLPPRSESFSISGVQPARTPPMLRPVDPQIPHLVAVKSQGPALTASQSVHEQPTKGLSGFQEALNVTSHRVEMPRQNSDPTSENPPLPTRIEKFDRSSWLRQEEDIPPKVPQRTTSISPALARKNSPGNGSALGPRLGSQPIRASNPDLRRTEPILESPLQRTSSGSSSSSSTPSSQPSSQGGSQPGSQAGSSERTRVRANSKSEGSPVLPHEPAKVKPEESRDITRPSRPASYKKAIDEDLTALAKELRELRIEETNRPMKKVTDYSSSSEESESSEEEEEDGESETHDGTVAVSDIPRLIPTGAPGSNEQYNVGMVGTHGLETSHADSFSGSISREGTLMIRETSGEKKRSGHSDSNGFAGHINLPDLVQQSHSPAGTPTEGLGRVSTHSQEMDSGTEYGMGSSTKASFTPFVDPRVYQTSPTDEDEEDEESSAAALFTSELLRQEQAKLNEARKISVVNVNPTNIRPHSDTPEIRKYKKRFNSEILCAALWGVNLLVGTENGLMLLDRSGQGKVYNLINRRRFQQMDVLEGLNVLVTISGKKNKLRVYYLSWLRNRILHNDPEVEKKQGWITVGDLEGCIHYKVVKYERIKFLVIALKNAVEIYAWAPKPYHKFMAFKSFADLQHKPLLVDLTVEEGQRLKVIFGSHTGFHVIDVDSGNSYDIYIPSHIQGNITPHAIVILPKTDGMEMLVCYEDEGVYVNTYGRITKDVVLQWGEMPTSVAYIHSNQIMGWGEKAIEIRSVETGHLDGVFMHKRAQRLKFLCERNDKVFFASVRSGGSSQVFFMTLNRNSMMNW

IC50 [nM]	Structure (SMILES)
4.4	CC#CC(=O)Nc1sc(Nc2ccc3ccccc3c2)nc1C(N)=O
22.5	NC(=O)c1nc(Nc2ccc3cc(F)ccc3c2)sc1NC(=O)c1ccc(NCCO)cc1
9.5	NC(=O)c1nc(Nc2ccc3ccccc3c2)sc1NC(=O)c1ccc(Cn2ccnc2[N+](=O)[O-])cc1
